Source: publication doi:10.1101/2025.10.14.682402v1 (biorxiv, 2025)

Assays:
kinase domain of ULK2 = target: T1, kinase domain of ULK2 (Homo sapiens, UniProt Q8IYT8); details: binder
T1 sequence (Q8IYT8 1-276 limits assumed): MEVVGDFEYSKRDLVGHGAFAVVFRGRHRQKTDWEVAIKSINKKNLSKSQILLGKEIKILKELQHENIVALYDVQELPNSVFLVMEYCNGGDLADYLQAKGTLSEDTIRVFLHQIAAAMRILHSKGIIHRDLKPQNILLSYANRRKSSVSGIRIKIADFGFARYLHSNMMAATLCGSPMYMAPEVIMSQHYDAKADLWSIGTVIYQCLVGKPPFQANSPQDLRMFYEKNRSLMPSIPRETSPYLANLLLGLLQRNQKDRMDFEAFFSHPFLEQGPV

ULK1 [1] = target: T2, ULK1 (Homo sapiens, UniProt O75385); assay: ADP-Glo kinase assay; assay type: biochemical
T2 sequence (O75385 1-1050): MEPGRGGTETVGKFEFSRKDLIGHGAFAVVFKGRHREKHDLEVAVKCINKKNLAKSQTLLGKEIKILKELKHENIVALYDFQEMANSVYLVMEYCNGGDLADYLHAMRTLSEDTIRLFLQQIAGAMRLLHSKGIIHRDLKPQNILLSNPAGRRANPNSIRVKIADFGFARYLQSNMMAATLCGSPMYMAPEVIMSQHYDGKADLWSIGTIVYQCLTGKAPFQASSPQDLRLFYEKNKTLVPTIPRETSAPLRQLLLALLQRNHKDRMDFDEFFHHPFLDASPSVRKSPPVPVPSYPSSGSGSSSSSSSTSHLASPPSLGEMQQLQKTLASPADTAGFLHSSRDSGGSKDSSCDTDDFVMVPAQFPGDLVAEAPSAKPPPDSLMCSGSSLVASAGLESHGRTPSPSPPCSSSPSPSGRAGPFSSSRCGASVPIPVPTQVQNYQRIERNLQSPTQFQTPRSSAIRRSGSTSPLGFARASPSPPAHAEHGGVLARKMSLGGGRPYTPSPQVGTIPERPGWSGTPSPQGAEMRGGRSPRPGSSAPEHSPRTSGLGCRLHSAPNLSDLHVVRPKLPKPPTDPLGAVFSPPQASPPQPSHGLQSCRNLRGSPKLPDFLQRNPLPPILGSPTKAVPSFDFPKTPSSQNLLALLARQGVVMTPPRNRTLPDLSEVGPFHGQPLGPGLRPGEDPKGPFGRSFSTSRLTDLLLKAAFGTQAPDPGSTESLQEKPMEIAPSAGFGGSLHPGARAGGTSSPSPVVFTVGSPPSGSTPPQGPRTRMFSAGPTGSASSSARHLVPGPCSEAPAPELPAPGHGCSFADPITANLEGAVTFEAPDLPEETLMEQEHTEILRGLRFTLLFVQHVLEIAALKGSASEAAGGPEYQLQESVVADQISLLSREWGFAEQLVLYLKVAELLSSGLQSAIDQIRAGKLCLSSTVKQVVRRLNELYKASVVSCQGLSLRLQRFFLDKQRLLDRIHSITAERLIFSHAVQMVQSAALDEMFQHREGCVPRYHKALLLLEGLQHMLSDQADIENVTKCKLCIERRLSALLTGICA

ULK2 = target: T3, ULK2 (Homo sapiens, UniProt Q8IYT8); assay: biochemical
T3 sequence (Q8IYT8 1-1036): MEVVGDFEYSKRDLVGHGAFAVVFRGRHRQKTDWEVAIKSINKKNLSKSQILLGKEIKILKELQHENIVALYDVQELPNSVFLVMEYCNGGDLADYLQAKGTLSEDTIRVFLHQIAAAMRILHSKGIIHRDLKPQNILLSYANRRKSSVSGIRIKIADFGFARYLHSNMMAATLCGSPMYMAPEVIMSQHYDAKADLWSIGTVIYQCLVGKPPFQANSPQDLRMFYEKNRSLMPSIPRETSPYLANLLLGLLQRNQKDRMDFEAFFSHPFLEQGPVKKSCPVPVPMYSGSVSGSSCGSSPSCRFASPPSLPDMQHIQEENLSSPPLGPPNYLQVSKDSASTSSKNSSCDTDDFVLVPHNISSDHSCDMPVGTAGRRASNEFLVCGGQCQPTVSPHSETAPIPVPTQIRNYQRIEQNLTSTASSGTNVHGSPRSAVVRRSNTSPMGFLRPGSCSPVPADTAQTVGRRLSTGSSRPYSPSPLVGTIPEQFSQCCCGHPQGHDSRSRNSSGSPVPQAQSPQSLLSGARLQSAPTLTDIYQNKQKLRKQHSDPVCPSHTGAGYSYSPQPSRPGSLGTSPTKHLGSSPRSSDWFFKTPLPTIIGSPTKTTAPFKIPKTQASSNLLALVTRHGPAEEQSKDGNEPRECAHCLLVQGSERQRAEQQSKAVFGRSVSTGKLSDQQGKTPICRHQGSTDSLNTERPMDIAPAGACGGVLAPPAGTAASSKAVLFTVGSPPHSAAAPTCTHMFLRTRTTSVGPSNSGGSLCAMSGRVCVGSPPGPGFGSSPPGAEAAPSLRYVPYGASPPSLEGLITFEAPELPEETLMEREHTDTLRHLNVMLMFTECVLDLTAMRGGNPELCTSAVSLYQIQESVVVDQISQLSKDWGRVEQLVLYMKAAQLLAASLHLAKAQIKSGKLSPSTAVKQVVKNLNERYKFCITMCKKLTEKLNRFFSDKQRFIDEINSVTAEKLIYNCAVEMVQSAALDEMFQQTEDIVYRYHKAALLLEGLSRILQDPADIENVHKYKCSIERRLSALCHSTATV

kinase domain of ULK1 = target: T4, kinase domain of ULK1 (Homo sapiens, UniProt O75385); details: binder
T4 sequence (O75385 1-283 limits assumed): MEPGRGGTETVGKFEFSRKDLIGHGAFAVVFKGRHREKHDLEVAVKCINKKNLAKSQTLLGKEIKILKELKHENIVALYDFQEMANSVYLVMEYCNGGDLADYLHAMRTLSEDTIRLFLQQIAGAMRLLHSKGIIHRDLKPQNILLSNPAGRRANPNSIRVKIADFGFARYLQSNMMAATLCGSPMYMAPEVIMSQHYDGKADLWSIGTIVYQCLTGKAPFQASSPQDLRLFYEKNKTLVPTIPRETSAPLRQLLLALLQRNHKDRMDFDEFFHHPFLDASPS

ULK1 [2] = target: T2, ULK1; assay: biochemical
ULK1 (NanoBRET) = target: T5, ULK1 (NanoBRET) (Homo sapiens, UniProt O75385); assay: NanoBRET cellular target engagement; assay type: cell-based
T5 sequence (O75385 1-1050): T2 sequence (O75385 1-1050)

Compound	ULK2 PTS (ºC) (kinase domain of ULK2)	IC50 (ULK1 [1])	IC50 (ULK2)	ULK1 PTS (ºC) (kinase domain of ULK1)	IC50 (ULK1 [2])	IC50 (ULK1 (NanoBRET))
CNC(=O)c1ccccc1Nc1nc(Nc2cc3c(cc2C)OCO3)ncc1Cl [6i, 2-(5-Chloro-2-(6-methylbenzo[d][1,3]dioxol-5-ylamino)pyrimidin-4-ylamino)-N-methylbenzamide]	2.45 ± 0.20 °C	–	> 3000 nM	3.37 ± 0.38 °C	2700 ± 1780 nM	–
CNC(=O)c1ccccc1Nc1nc(Nc2ccc(N3CCOCC3)cc2OC)ncc1Br [6b, 2-(5-Bromo-2-(2-methoxy-4-morpholinophenylamino)pyrimidin-4-ylamino)-N-methylbenzamide]	4.13 ± 0.02 °C	141 nM	> 3000 nM	5.60 ± 0.23 °C	–	–
CNC(=O)c1ccccc1Nc1nc(Nc2ccc3c(c2)CC(=O)N3)ncc1Cl [6f, 2-(5-Chloro-2-(2-oxoindolin-5-ylamino)pyrimidin-4-ylamino)-N-methylbenzamide]	0.48 ± 0.06 °C	21 nM	> 3000 nM	0.20 ± 0.13 °C	–	–
O=C1CCc2cc(Nc3ncc(C(F)(F)F)c(NC4CC4)n3)ccc2N1 [SBP-7501, reference compound]	–	–	–	–	–	167 ± 31 nM
CNC(=O)c1ccccc1Nc1nc(Nc2cc(OC)c(OC)c(OC)c2)ncc1Cl [6o, 2-(5-Chloro-2-(3,4,5-trimethoxyphenylamino)pyrimidin-4-ylamino)-N-methylbenzamide]	12.01 ± 0.05 °C	8 nM	–	14.25 ± 0.11 °C	–	4.05 nM
CNC(=O)c1ccccc1Nc1nc(Nc2cc(N3CCOCC3)cc(N3CCOCC3)c2)ncc1Br [6t, 2-(5-Bromo-2-(3,5-dimorpholinophenylamino)pyrimidin-4-ylamino)-N-methylbenzamide]	16.23 ± 0.15 °C	–	59 ± 6 nM	16.83 ± 0.12 °C	8 ± 1 nM	–
CNC(=O)c1ccccc1Nc1nc(Nc2cc(OC)ccc2C)ncc1C(F)(F)F [6l, 2-(2-(5-Methoxy-2-methylphenylamino)-5-(trifluoromethyl)pyrimidin-4-ylamino)-N-methylbenzamide]	7.08 ± 0.25 °C	38 nM	1960 ± 101 nM	8.90 ± 0.17 °C	–	–
CNC(=O)c1ccccc1Nc1nc(Nc2cc(OC)ccc2C)ncc1Br [6m, 2-(5-Bromo-2-(5-methoxy-2-methylphenylamino)pyrimidin-4-ylamino)-N-methylbenzamide]	4.28 ± 0.19 °C	32 nM	> 3000 nM	6.78 ± 0.13 °C	–	–
CNC(=O)c1ccccc1Nc1nc(Nc2cc(N3CCOCC3)cc(N3CCOCC3)c2)ncc1Cl [6s, 2-(5-Chloro-2-(3,5-dimorpholinophenylamino)pyrimidin-4-ylamino)-N-methylbenzamide]	11.50 ± 0.27 °C	–	180 ± 9 nM	13.28 ± 0.40 °C	38 ± 4 nM	–
CNC(=O)c1ccccc1Nc1nc(Nc2cc(N3CCOCC3)cc(N3CCOCC3)c2)ncc1C(F)(F)F [6r, 2-(2-(3,5-dimorpholinophenylamino)-5-(trifluoromethyl)pyrimidin-4-ylamino)-N-methylbenzamide]	16.70 ± 0.05 °C	–	19 ± 3 nM	17.28 ± 0.06 °C	15 ± 1 nM	17 nM
CNC(=O)c1ccccc1Nc1nc(Nc2ccc3[nH]ccc3c2)ncc1Cl [6g, 2-(2-(1H-indol-5-ylamino)-5-chloropyrimidin-4-ylamino)-N-methylbenzamide]	5.86 ± 0.12 °C	–	> 3000 nM	6.78 ± 0.19 °C	94 ± 43 nM	–

Continued, values first:

ULK2 PTS (ºC) (kinase domain of ULK2)	IC50 (ULK1 [1])	IC50 (ULK2)	ULK1 PTS (ºC) (kinase domain of ULK1)	IC50 (ULK1 [2])	IC50 (ULK1 (NanoBRET))	Compound
4.43 ± 0.33 °C	218 nM	> 3000 nM	6.05 ± 0.13 °C	–	–	CNC(=O)c1ccccc1Nc1nc(Nc2ccc3c(c2)OCCO3)ncc1Cl [6j, 2-(5-Chloro-2-(2,3-dihydrobenzo[b][1,4]dioxin-6-ylamino)pyrimidin-4-ylamino)-N-methylbenzamide]
1.38 ± 0.33 °C	–	> 3000 nM	6.53 ± 0.87 °C	50 ± 25 nM	–	CNC(=O)c1ccccc1Nc1nc(Nc2cccc(OC)c2)ncc1Cl [6n, 2-(5-Chloro-2-(3-methoxyphenylamino)pyrimidin-4-ylamino)-N-methylbenzamide]
–	–	–	–	–	328 ± 43 nM	SBP-7455 [reference compound]
6.50 ± 0.09 °C	62 nM	1340 ± 198 nM	6.55 ± 0.12 °C	–	–	CNC(=O)c1ccccc1Nc1nc(Nc2ccc(N3CCOCC3)cc2OC)ncc1C(F)(F)F [6c, 2-(2-(2-Methoxy-4-morpholinophenylamino)-5-(trifluoromethyl)pyrimidin-4-ylamino)-N-methylbenzamide]
7.49 ± 0.46 °C	–	> 3000 nM	8.08 ± 0.53 °C	6 ± 1 nM	–	CNC(=O)c1ccccc1Nc1nc(Nc2ccc3[nH]ccc3c2)ncc1Br [6h, 2-(2-(1H-indol-5-ylamino)-5-bromopyrimidin-4-ylamino)-N-methylbenzamide]
3.38 ± 0.14 °C	292 nM	893 ± 454 nM	5.75 ± 0.12 °C	–	–	CNC(=O)c1ccccc1Nc1nc(Nc2cc(OC)ccc2C)ncc1Cl [6k, 2-(5-Chloro-2-(5-methoxy-2-methylphenylamino)pyrimidin-4-ylamino)-N-methylbenzamide]
–	–	–	–	–	47 ± 11 nM	FC(F)(F)c1cnc(Nc2ccc3c(c2)CCNC3)nc1NC1CC1 [SBP-5147, reference compound]
